Results published in patent US8017656B2, “Organic sulfur compounds and use thereof” (Sumitomo Chemical Company, Limited, priority 2005, dated 2011).
Like-named read-outs stand apart in the source and are kept apart here.

Legend:
Type in all cases: in vivo
Blattella germanica = assay: Test Example 3: filter paper/sucrose bait test against German cockroach imagoes; details: for pest or weed control at 500 ppm: Blattella germanica, 144 h, read-out: rate of dead pests
Description: (§1) On the bottom of a polyethylene cup having a diameter of 5.5 cm, a filter paper having the same diameter was laid, and 0.7 ml of the above test solution was added dropwise on the filter paper, followed by putting 30 mg of sucrose on it uniformly as a bait. Two male Blattella germanica imagoes were set free in the polyethylene cup and covered it with a lid. After 6 days, the number of surviving and dead Blattella germanica was examined and the rate of dead pests was calculated.

Culex pipiens pallens = assay: Test Example 4: mosquito larvae test in treated water; details: 24 h, read-out: rate of dead pests
Description: 0.7 ml of above test solution was added to 100 ml of ion exchanged water (active ingredient concentration: 3.5 ppm). Twenty last-instar larvae of Culex pipiens pallens were set free in the solution. After one day, the number of surviving and dead Culex pipiens pallens was examined and the rate of dead pests was calculated.

Musca domestica = assay: Test Example 2: filter paper/sucrose bait test against housefly imagoes; details: read-out: rate of dead pests
Description: as §1, with “Ten female Musca domestica” for “Two male Blattella germanica”, “24 hours,” for “6 days,”, “Musca domestica” for “Blattella germanica”

[1] = 500 ppm test solution, 0.7 ml on filter paper with 30 mg sucrose, two male imagoes, after 6 days
[2] = active ingredient concentration 3.5 ppm in water, twenty last-instar larvae, after one day
[3] = 500 ppm test solution, 0.7 ml on filter paper with 30 mg sucrose, ten female imagoes, after 24 hours

| Compound | pest or weed control at 500 ppm (Blattella germanica; [1]) | pest or weed control at 3.5 ppm (Culex pipiens pallens; [2]) | pest or weed control at 500 ppm (Musca domestica; [3]) | other results |
| --- | --- | --- | --- | --- |
| NC(=O)C(Cl)(CCC(F)(F)F)S(=O)(=O)CCC(F)(F)F (centres unmarked) [(81)] | 100% | ≥ 90% | ≥ 70% | – |
| NC(=O)C(Cl)(CCC(F)(F)C(F)(F)F)S(=O)(=O)CCC(F)(F)F (centres unmarked) [(59)] | 100% | ≥ 90% | ≥ 70% | – |
| CC(C#N)(CCC(F)(F)C(F)(F)F)SCCC(F)(F)F (centres unmarked) [(50)] | 100% | ≥ 90% | ≥ 70% | – |
| CCCCC(C#N)(CCC(F)(F)C(F)(F)F)S(=O)(=O)CCC(F)(F)F (centres unmarked) [(18)] | – | ≥ 90% | ≥ 70% | – |
| COC(=O)C(CCC(F)(F)F)S(=O)(=O)CCC(F)(F)C(F)(F)F (centres unmarked) [(92)] | – | ≥ 90% | – | – |
| NC(=O)C(Cl)(CCCC(F)(F)F)S(=O)(=O)CCC(F)(F)F (centres unmarked) [(80)] | 100% | ≥ 90% | ≥ 70% | – |
| COC(=O)C(Cl)(CCCCC(F)(F)F)S(=O)(=O)CCC(F)(F)F (centres unmarked) [(99)] | – | – | ≥ 70% | – |
| N#CC(CCC(F)(F)C(F)(F)F)SCCC(F)(F)F (centres unmarked) [(47)] | – | – | – | rate of dead pests (Blattella germanica; [1]): 100% |
| COC(=O)C(Cl)(CCC(F)(F)C(F)(F)F)S(=O)(=O)CCC(F)(F)F (centres unmarked) [(58)] | 100% | ≥ 90% | ≥ 70% | – |
| COC(=O)C(CCC(F)(F)C(F)(F)F)[S+]([O-])CCC(F)(F)F (centres unmarked) [(63)] | 100% | ≥ 90% | ≥ 70% | – |
| CNC(=O)C(C)(CCC(F)(F)C(F)(F)F)S(=O)(=O)CCC(F)(F)F (centres unmarked) [(35)] | 100% | ≥ 90% | ≥ 70% | – |
| N#CC(CCC(F)(F)C(F)(F)F)S(=O)(=O)CCC(F)(F)C(F)(F)F (centres unmarked) [(8)] | 100% | ≥ 90% | ≥ 70% | – |
| CNC(=O)C(Cl)(CCC(F)(F)C(F)(F)F)S(=O)(=O)CCC(F)(F)F (centres unmarked) [(75)] | 100% | ≥ 90% | ≥ 70% | – |
| CCNC(=O)C(C)(CCC(F)(F)C(F)(F)F)S(=O)(=O)CCC(F)(F)F (centres unmarked) [(37)] | 100% | ≥ 90% | ≥ 70% | – |
| NC(=O)C(Cl)(CCCC(F)(F)C(F)(F)F)S(=O)(=O)CCC(F)(F)F (centres unmarked) [(103)] | 100% | ≥ 90% | ≥ 70% | – |
| COC(=O)C(CCCC(F)(F)F)S(=O)(=O)CCC(F)(F)F (centres unmarked) [(22)] | – | ≥ 90% | ≥ 70% | – |
| COC(=O)C(CCC(F)(F)C(F)(F)C(F)(F)F)S(=O)(=O)CCC(F)(F)C(F)(F)F (centres unmarked) [(51)] | – | – | – | pest or weed control at 3.5 ppm (Culex pipiens pallens): ≥ 90% |
| N#CC(CCC(F)(F)C(F)(F)C(F)(F)C(F)(F)F)S(=O)(=O)CCC(F)(F)F (centres unmarked) [(7)] | – | – | – | pest or weed control at 500 ppm (Blattella germanica): 100%; pest or weed control at 3.5 ppm (Culex pipiens pallens): ≥ 90% |
| COC(=O)C(CCCC(F)(F)C(F)(F)F)S(=O)(=O)CCC(F)(F)F (centres unmarked) [(101)] | 100% | – | ≥ 70% | – |
| CCCC(CCC(F)(F)C(F)(F)F)(C(=O)OC)S(=O)(=O)CCC(F)(F)F (centres unmarked) [(28)] | – | – | ≥ 70% | – |
| COC(=O)C(C)(CCCC(F)(F)F)S(=O)(=O)CCC(F)(F)F (centres unmarked) [(44)] | 100% | – | ≥ 70% | – |
| NC(=O)C(F)(CCC(F)(F)C(F)(F)F)S(=O)(=O)CCC(F)(F)F (centres unmarked) [(64)] | 100% | – | ≥ 70% | – |
| CCCCCC(C#N)(CCC(F)(F)C(F)(F)F)S(=O)(=O)CCC(F)(F)F (centres unmarked) [(19)] | – | ≥ 90% | ≥ 70% | – |
| COC(=O)C(F)(CCC(F)(F)C(F)(F)F)S(=O)(=O)CCC(F)(F)C(F)(F)C(F)(F)F (centres unmarked) [(66)] | – | – | – | pest or weed control at 500 ppm (Musca domestica; 24 h): ≥ 70% |
| CC(C)(C)OC(=O)C(CCC(F)(F)C(F)(F)F)S(=O)(=O)CCC(F)(F)F (centres unmarked) [(25)] | – | ≥ 90% | ≥ 70% | – |
| COC(=O)C(CCC(F)(F)C(F)(F)C(F)(F)F)S(=O)(=O)CCC(F)(F)F (centres unmarked) [(82)] | – | – | – | pest or weed control at 3.5 ppm (Culex pipiens pallens): ≥ 90%; pest or weed control at 500 ppm (Musca domestica; 24 h): ≥ 70% |
| NC(=O)C(CCC(F)(F)C(F)(F)C(F)(F)F)S(=O)(=O)CCC(F)(F)C(F)(F)F (centres unmarked) [(55)] | – | – | – | pest or weed control at 500 ppm (Blattella germanica): 100%; pest or weed control at 500 ppm (Musca domestica; 24 h): ≥ 70% |
